How the values were obtained:
japanese bulrush = experiment: Test Example 3: paddy pot test, application under submerged conditions; format: in vivo, Scirpus juncoides; conditions: active ingredient 250 g/ha; submerged application at 0.5 leaf stage; visually observed 14 days after application; 0 = non-treated, 100 = complete kill
Method in brief: (§1)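 Paddy soil pots; seeds sown, lightly covered; flooded 0.5–1 cm in greenhouse; wapato tubers planted day 1–2; flood raised to 3–4 cm. Submerged pipette application at 0.5 leaf / primary leaf stage. Visual score day 14, 0–100%.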

rice (var. Nihonbare) = experiment: Test Example 3: paddy pot test, transplanted rice; format: in vivo, Oryza sativa L.; conditions: active ingredient 250 g/ha, applied 4th day after transplantation, visually observed 21st day after application, 0 = non-treated, 100 = complete kill
Method in brief: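 Visual crop-injury rating (0 = as untreated, 100 = complete kill, %) taken 21 days post-application. Treatment: formulated compound, water-diluted, pipetted into 3–4 cm flood water at a preset active-ingredient dose, 4 days after transplanting 2-leaf Nihonbare rice 3 cm deep in puddled paddy soil.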

barnyardgrass [1] = experiment: Test Example 2: soil surface treatment, upland pot test; format: in vivo, Echinochloa crus-galli L.; conditions: active ingredient 250 g/ha, observed 20th to 28th day
Method in brief: (§2)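 Pre-emergence: the soil surface was sprayed 1 day after sowing with wettable powder or emulsifiable concentrate diluted in water at 1,500 L/ha, at a predetermined active ingredient amount. Growth control was scored visually 20–28 days after treatment, 0 (untreated) to 100 (complete kill).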

wheat = experiment: as above; format: in vivo, Triticum spp.; conditions: active ingredient 250 g/ha, observed 20th to 28th day
Excerpt: Upland field soil was put into a 1/170,000 ha pot, and seed of various plants (barnyardgrass, crabgrass, green foxtail, redroot pigweed, prickly sida, velvetleaf, rice, wheat, corn, soybean) were sown. On the 1st day after the sowing, a wettable powder or emulsifiable concentrate having the compound of the present invention formulated in accordance with a usual formulation method, was weighed so that the active ingredient would be a predetermined amount, and diluted with water in an amount of 1,500 L/ha. The herbicide thus adjusted was applied by a small size sprayer for soil surface treatment. On the 20th to 28th days after the application of the herbicide, the growth of the respective plants was visually observed, and the herbicidal effects were evaluated by the growth controlling degrees (%) ranging from 0 (equivalent to the non-treated plot) to 100 (complete kill), whereby the results shown in Table 4, were obtained.

corn = experiment: as above; format: in vivo, Zea mays L.; conditions: active ingredient 250 g/ha, observed 20th to 28th day
Method in brief: as §2

velvetleaf = experiment: as above; format: in vivo, Abutilon theophrasti MEDIC.; conditions: active ingredient 250 g/ha, observed 20th to 28th day
Method in brief: as §2

soybean = experiment: as above; format: in vivo, Glycine max Merr.; conditions: active ingredient 250 g/ha, observed 20th to 28th day
Method in brief: as §2

redroot pigweed = experiment: as above; format: in vivo, Amaranthus retroflexus L.; conditions: active ingredient 250 g/ha, observed 20th to 28th day
Method in brief: as §2

prickly sida = experiment: as above; format: in vivo, Sida spinosa L.; conditions: active ingredient 250 g/ha, observed 20th to 28th day
Method in brief: as §2

green foxtail = experiment: as above; format: in vivo, Setaria viridis L.; conditions: active ingredient 250 g/ha, observed 20th to 28th day
Method in brief: as §2

barnyardgrass [2] = experiment: Test Example 3: paddy pot test, application under submerged conditions; format: in vivo, Echinochloa crus-galli L.; conditions: active ingredient 250 g/ha; submerged application at 0.5 leaf stage; visually observed 14 days after application; 0 = non-treated, 100 = complete kill
Method in brief: as §1

rice = experiment: Test Example 2: soil surface treatment, upland pot test; format: in vivo, Oryza sativa L.; conditions: active ingredient 250 g/ha, observed 20th to 28th day
Method in brief: as §2

crabgrass = experiment: as above; format: in vivo, Digitaria sanguinalis L.; conditions: active ingredient 250 g/ha, observed 20th to 28th day
Method in brief: as §2

| Compound | Growth controlling degree (%) Japanese bulrush (japanese bulrush) [%] | Growth controlling degree (%) Rice (rice (var. Nihonbare)) [%] | Growth controlling degree (%) Barnyardgrass (barnyardgrass [1]) [%] | Growth controlling degree (%) wheat (wheat) [%] | Growth controlling degree (%) Corn (corn) [%] | Growth controlling degree (%) Velvetleaf (velvetleaf) [%] | Growth controlling degree (%) Soyabean (soybean) [%] | Growth controlling degree (%) Redroot pigweed (redroot pigweed) [%] | Growth controlling degree (%) Prickly sida (prickly sida) [%] | Growth controlling degree (%) Green foxtail (green foxtail) [%] | Growth controlling degree (%) Barnyardgrass (barnyardgrass [2]) [%] | Growth controlling degree (%) Rice (rice) [%] | Growth controlling degree (%) Crabgrass (crabgrass) [%] |
| --- | --- | --- | --- | --- | --- | --- | --- | --- | --- | --- | --- | --- | --- |
| CC(C)C(c1cnccc1C(F)(F)F)N(C)C(=O)C(F)=Cc1ccccc1 (stereo not drawn) [Compound I-207] | 100 | 10 | 100 | 20 | 30 | 50 | 30 | 60 | 80 | 100 | 98 | 40 | 98 |
| CC(C)C(c1cnccc1C(F)(F)F)N(C)C(=O)C1CC1 (stereo not drawn) [Compound I-204] | 98 | 60 | 100 | 95 | 70 | 70 | 70 | 95 | 95 | 100 | 100 | 100 | 100 |
| CC(C)=CC(=O)N(C)C(c1cnccc1C(F)(F)F)C(C)C (stereo not drawn) [Compound I-205] | 98 | 20 | 100 | 95 | 40 | 60 | 30 | 80 | 70 | 100 | 100 | 70 | 100 |
| CC(=Cc1ccccc1)C(=O)N(C)C(c1cnccc1C(F)(F)F)C(C)C (stereo not drawn) [I-206] | 98 | 10 | 100 | 30 | 30 | 40 | 20 | 70 | 50 | 100 | 100 | 40 | 100 |
| CC(C)C(c1cnccc1C(F)(F)F)N(C)S(=O)(=O)c1ccc(Br)cc1 (racemic) [I-136] | 70 | 0 | 70 | 10 | 20 | 30 | 10 | 10 | 50 | 95 | 100 | 50 | 90 |
| CC(C)C(c1cnccc1C(F)(F)F)N(C)C(=O)CCBr (stereo not drawn) [I-201] | 98 | 10 | 100 | 60 | 40 | 40 | 40 | 70 | 60 | 100 | 98 | 70 | 100 |
